Source: patent publication US12527788B2, “Defining RNA-small molecule affinity landscapes enables design of a small molecule inhibitor of an oncogenic non-coding RNA” (University of Florida Research Foundation, Incorporated, priority 2017, dated 2026)
“Also recorded” adds a separate entry of the source.

How the values were obtained:
[1] = tested on: pre-miR-17; experiment: In vitro Dicer inhibition assay; format: biochemical, human; details: low micromolar concentrations
Experimental: (§1) Initial studies were completed in vitro to determine if compound 4 (Targapremir-18a) inhibits Dicer processing of each miRNA separately in the miR-17-92 cluster using radioactively labeled RNA (FIG. 8A). […] Thus, inhibition of Dicer processing by 4 is selective for miR-17, -18a, and -20a and non-selective inhibition of Dicer processing is not observed.
(§2) Dicer Inhibition Assay: The template used for pre-miR-18a (5′-[…] GCTCCTTCTGGCA) (SEQ ID NO: 41) was PCR-amplified in 1×PCR Buffer, 2 μM forward primer (5′-[…]-AAGGTGCATCTAGTGCAGA) (SEQ ID NO: 42), 2 μM reverse primer (5′-[…]) (SEQ ID NO: 43), 4.25 mM MgCl2, 330 μM dNTPs, and 2 μL of Taq DNA polymerase in a 50 μL reaction. Cycling conditions were 95° C. for 30 s, 55° C. for 30 s, and 72° C. for 60 s. […] The samples was then supplemented with 1 mM ATP and 2.5 mM MgCl2. Serially diluted concentrations of 4 were added and the samples were incubated at room temperature for 15 min. Next, 0.005 units/μL of recombinant human Dicer (Genlantis) were added followed by incubation at 37° C. overnight. Reactions were stopped by adding the manufacturer's supplied stop solution.
(§3) A T1 ladder (cleaves G residues) was generated by heating the RNA in 1×RNA Sequencing Buffer (20 mM sodium citrate, pH 5.0, 1 mM EDTA, and 7 M urea) at 55° C. for 10 min followed by slowly cooling to room temperature. RNase T1 was then added to a final concentration of 3, 0.3, 0.03 units/μL and the solution was incubated at room temperature for 20 min. An RNA hydrolysis ladder was generated by incubating RNA in 1×RNA hydrolysis buffer (50 mM NaHCO3, pH 9.4, and 1 mM EDTA) at 95° C. for 5 min. In all cases, cleavage products were separated on a denaturing 15% polyacrylamide gel and imaged using a Bio-Rad PMI phosphorimager.

[2] = tested on: pre-miR-18a; experiment: In vitro Dicer inhibition assay; format: biochemical, human; details: low micromolar concentrations
Experimental: as §1, §2, §3

[3] = tested on: pre-miR-19b; experiment: In vitro Dicer inhibition assay; format: biochemical, human
Experimental: as §1, §2, §3

[4] = tested on: pre-miR-20; experiment: In vitro Dicer inhibition assay; format: biochemical, human; details: low micromolar concentrations
Experimental: as §1, §2, §3

[5] = tested on: pre-miR-19a; experiment: In vitro Dicer inhibition assay; format: biochemical, human
Experimental: as §1, §2, §3

[6] = biological target: AT-rich DNA hairpin; experiment: In solution fluorescence-based binding affinity measurement
Excerpt: It has been difficult to identify compounds that are heterocyclic in nature that selectively recognize RNA over DNA.^5 Thus, to further gain insight into the selectivity of our RNA motif-small molecule interactions, we compared the measured affinities for selected RNA motifs to the affinities of the ligands for an AT-rich DNA hairpin, a common target of small molecules similar to those shown in FIG. 1. […] This alteration reduces DNA affinity because key stacking and hydrogen bonding interactions are not possible. […] Thus, the interactions selected via 2DCS are RNA-selective.
(§4) Binding Affinity Measurements: An in solution, fluorescence-based assay was used to determine binding affinities by monitoring the change in fluorescence intensity of 1-FL (or 2-FL/3-FL/4-FL) as a function of RNA concentration as described previously.^18 Briefly, the RNA of interest was folded in 1× Folding Buffer (8 mM Na2HPO4, pH 7.0, 185 mM NaCl and 1 mM EDTA) by heating at 60° C. for 5 min followed by slowly cooling to room temperature on the bench top. Then, the FL-conjugated compound was added into the RNA solution to a final concentration of 100 nM. Serial dilutions were then completed using 1× Folding Buffer supplemented with 100 nM FL-conjugated compound. The solutions were incubated at room temperature for 30 min and then transferred to a well of a black 384-well plate. Fluorescence intensity was measured using a Bio-Tek FL×800 plate reader with an excitation wavelength of 485/20 nm and an emission wavelength of 528/20 nm. The change in fluorescence intensity as a function of the concentration of RNA was fit to equation 3:^9 I=I0+0.5 Δε{([FL]0+[RNA]0 +Kd)−(([FL]0+[RNA]0+Kd)^2−4[FL]0[RNA]0)^1/2} (3) where I is the observed fluorescence intensity; I0 is the fluorescence intensity in the absence of RNA; Δε is the difference between the fluorescence intensity in the absence of RNA and in the presence of infinite RNA concentration; [FL]0 is the concentration of compound; [RNA]0 is the concentration of the selected RNA; and Kd is the dissociation constant.

[7] = biological target: selected RNA motifs; experiment: as above; details: read-out: Average Kd of Selected RNA Binders
Experimental: Bound RNA motifs for each compound were harvested from the array surface, amplified, and identified by using high throughput sequencing (RNA-seq). Highly abundant RNAs in the sequencing data were then subjected to binding measurements. Typically, those RNAs that were highly enriched bound to the small molecules with affinities (Kds) that ranged from 1 to 10 μM (FIG. 2 and Table 1) while binding to the starting libraries was not saturable. These affinities are promising for binding RNA, as it has been difficult to acquire low micromolar affinity with compounds of this low molecular weight. In fact, RNAs that have undergone Darwinian evolution to bind small molecules, namely riboswitches, often bind their cognate ligand at […] concentrations;^30-33 bioactive compounds that mimic riboswitch ligands bind with similar affinities.^30,34
as §4

[8] = tested on: DU145 prostate cancer cells; experiment: Apoptosis by Annexin V/PI staining; format: cell-based; details: 10 μM and 20 μM
Experimental: A, Effect of 4 on STK4 protein expression, a direct target of miR-18a. B, Ability of 4 (10 μM and 20 μM) and a miR-18a antagomir (50 nM) to trigger apoptosis. *, p<0.05 and **, p<0.01, as determined by a two-tailed Student t-test.
Although the most common route to modulate protein expression is to inhibit them directly, here we show it is possible to increase protein expression by targeting non-coding RNAs that repress their production.

[9] = biological target: RNAC (U bulge mutated to an AU pair); experiment: Fluorescence-based binding affinity measurement
Experimental: FIG. 7: Secondary structures of the nucleic acids to which the binding of small molecule 4 was assessed. […] RNA1 contains the U bulge present in the Dicer processing site common to miR-17, -18a and -20a. RNA2 contains the A bulge that is present in miR-18a. RNA3 contains the G bulge present in miR-17 and miR-20a. Binding affinities (Kd's) are indicated in parentheses and are reported in micromolar.
Mutation of the U bulge to an AU pair (RNAC) eliminates binding (Kd>100 μM).
Binding Affinity Measurements: An in solution, fluorescence-based assay was used to determine binding affinities by monitoring the change in fluorescence intensity of 1-FL (or 2-FL/3-FL/4-FL) as a function of RNA concentration as described previously.^18 Briefly, the RNA of interest was folded in 1× Folding Buffer (8 mM Na2HPO4, pH 7.0, 185 mM NaCl and 1 mM EDTA) by heating at 60° C. for 5 min followed by slowly cooling to room temperature on the bench top. Then, the FL-conjugated compound was added into the RNA solution to a final concentration of 100 nM. Serial dilutions were then completed using 1× Folding Buffer supplemented with 100 nM FL-conjugated compound. The solutions were incubated at room temperature for 30 min and then transferred to a well of a black 384-well plate. […]

## CN1CCN(c2ccc(-c3ccc4nc(-c5cc(C(C)(C)C)c(OCCCC(=O)NCCCN=[N+]=[N-])c(C(C)(C)C)c5)[nH]c4c3)cc2)CC1 [Compound 4]
[1]
  Inhibition of Dicer processing: inhibited Dicer processing
[2]
  Inhibition of Dicer processing: inhibits in vitro Dicer processing; also recorded: inhibited Dicer processing
[3]
  Effect on Dicer processing: no effect
[4]
  Inhibition of Dicer processing: inhibited Dicer processing
[5]
  Effect on Dicer processing: no effect
[6]
  Kd: > 100 µM
[7]
  Kd: 11 ± 2 µM
[8]
  Apoptosis: triggers apoptosis
[9]
  Kd: > 100 µM
